Format in all cases: in vivo, Sprague-Dawley rats
Data set [1] has as its system heme metabolism. Here is the method: (§1) The efficacy of the products of the invention for their newly discovered utility was established by experiments with three groups of male Sprague-Dawley rats (males, 150-200 grams, 16 per group). The rats were maintained on ad lib water and powdered rat chow (Purina) during the experiments. Group A was untreated, Group B was treated subcutaneously with doxorubicin alone on day 0, and Group C was treated with SnPP one day prior to doxorubicin which was administered on day 0.
It will be seen that the increase in heme oxygenase activity and decrease in ALA synthetase activity and microsomal content of cytochrome P-450 were at a maximum on day 2 and returned to normal by day 10.
(§2) The animals utilized in the tests were acclimated in metabolic cages maintained in a controlled environment with a 12h/12h light/dark cycle.
(§3) The compositions for parenteral administration were freshly prepared for each injection by addition of 0.4 N NaOH (20% v/v) to prepare a solution at pH 12, adjusted to pH 7.5 with 1 NHCl and made to final volume with 0.9% saline. The dosage level per injection was 50 µmol/kg b.w. Control animals were administered an equivalent amount of saline.
Animals were deprived of food but allowed free access to water for 16 hours prior to sacrifice. Livers were perfused in situ with ice-cold saline and homogenized in tris-HCL (0.01 M, pH 7.4) buffer containing sucrose (0.25 M). Homogenates (25% w/v) were centrifuged at 9000 g for 20 min, and the resulting mitochondrial pellet was used for the assay of ALA-synthetase activity. The 9000 xg supernatant was centrifuged at 105,000 xg for 60 min in a Beckman L5-50 ultracentrifuge. The microsomal pellet was resuspended in a minimum volume of potassium phosphate buffer (0.1 M, pH 7.4) and the cytosol was used as a source of biliverdin reductase. Cytochrome P-450 content was determined by the methods of Omura and Sato [J. Biol. Chem., 239: 2379 (1966) and 239: 2370 (1966)], and protein concentration by the method of Lowry et al [J. Biol. Chem., 193 265 (1951)] using crystalline bovine serum albumin as standard. […]

Data set [2] concerns cytochrome P-450. Description: hepatic microsomal cytochrome P-450 content in rats treated with doxorubicin, with or without SnPP. Here is the method: as §1, §2, §3
(§4) Animals were deprived of food but allowed free access to water for 16 hours prior to sacrifice. […] Cytochrome P-450 content was determined by the methods of Omura and Sato [J. Biol. Chem., 239: 2379 (1966) and 239: 2370 (1966)], and protein concentration by the method of Lowry et al [J. Biol. Chem., 193 265 (1951)] using crystalline bovine serum albumin as standard. […]

Data set [3] has as its system microsomal heme. Description: hepatic microsomal heme content in rats treated with doxorubicin, with or without SnPP. Here is the method:
as §1, §2, §3, §4

Data set [4] has as its system ALA synthetase. Description: hepatic ALA synthetase activity in rats treated with doxorubicin, with or without SnPP. The settings on record: SnPP (50 µmol/kg b.w.) one day prior to doxorubicin 10 mg/kg b.w.; compared to the group treated with doxorubicin alone. As for the experimental part:
as §1, §2, §3, §4

Data set [5] relates to hepatic heme oxygenase. Put plainly: hepatic heme oxygenase activity in rats treated with doxorubicin, with or without SnPP. The conditions noted are these: SnPP (50 µmol/kg b.w.) one day prior to doxorubicin 10 mg/kg b.w.; compared to the group treated with doxorubicin alone. As for the experimental part: as §1, §2, §3, §4
The mark [6] stands for this setting: doxorubicin 10 mg/kg b.w. subcutaneous, measured 2 days after administration, vs untreated, P < 0.05.
Setting [7] is: SnPP one day prior to doxorubicin 10 mg/kg b.w., compared to the untreated group.

Some results are limits rather than exact numbers.

Consider `COc1cccc2c1C(=O)c1c(O)c3c(c(O)c1C2=O)C[C@@](O)(C(=O)CO)C[C@@H]3O[C@H]1C[C@H](N)[C@H](O)[C@H](C)O1` [doxorubicin, reference compound], for which, in data set [1] (rat, in vivo), the “time of maximum increase in heme oxygenase activity and decrease in ALA synthetase activity and microsomal content of cytochrome P-450” value came out at 2 days; the “time of return to normal of heme oxygenase activity, ALA synthetase activity and microsomal cytochrome P-450” value was not above 10 days. Besides, the “decrease in the microsomal content of cytochrome P-450” value in data set [2] (setting [6]) was found to be 18%. In data set [3] (setting [6]), the “decrease in the microsomal content of heme” value was 45%.

As to tin protoporphyrin-IX [SnPP], the “prevention of doxorubicin-induced variations in heme metabolism” value in data set [1] (metalloporphyrin administered one day prior to doxorubicin) is “prevented the occurrence of these variations in heme metabolism”. Further, the “levels of hepatic cytochrome P-450” value in data set [2] (setting [7]) is listed as “substantially identical to those in the untreated group”. Also, the “levels of microsomal heme” value in data set [3] (setting [7]) is reported as “substantially identical to those in the untreated group”. For the same compound, the “increase in hepatic ALA-synthetase activity” value in data set [4] turned out to be 35%. In addition, the “decrease in hepatic heme oxygenase activity” value in data set [5] was 92%.

The values above are taken from patent publication EP0333831B1, “USE OF METALLOPORPHYRINS TO REVERSE THE TOXIC EFFECT OF TUMOR THERAPY” (priority 1987, dated 1989).
